Assays:
bone marrow stem cells = settings: rats, coronary artery ligation, administered within hours after cardiac ischemia, with or without rhG-CSF
Description: Adult rats are anesthetized and a thoracotomy is performed. The descending branch of the left coronary artery is ligated and not reperfused. […] Control rats are not treated with the reagents. The animals are monitored at one-week intervals by echocardiography and MRI. […] On the day of sacrifice, the hemodynamic functions are analyzed for left ventricle-end diastolic pressure, left ventricle-developed pressure and the rate of rise and fall of left ventricle pressure. The heart is then arrested in diastole and perfused via the abdominal aorta to flush residual blood from the vascular network of the myocardium. […] Several slices are made through the fixed heart and these are embedded in paraffin and sections. The sections are stained and analyzed by light microscopy to determine the size of the infarct in the treated and control animals. […] The immunohistochemical analysis involves the identification of transcription factors and surface markers expressed in early stages of myocyte development.

[1] = system: circulating CD34+ progenitor/stem cells; settings: single dose of 80 μg/kg, cited from earlier work

With `c1cc(CN2CCCNCCNCCCNCC2)ccc1CN1CCCNCCNCCCNCC1` [AMD-3100] the “cardiac remodeling and scar formation” value (bone marrow stem cells) was “block to cardiac remodeling and scar formation”, the “mobilization of bone marrow stem cells” value (bone marrow stem cells) was “mobilizes bone marrow stem cells rapidly” and the regeneration of myocardium (bone marrow stem cells) was “regeneration of the dead myocardium”. For the same compound, the “peak increase in circulating CD34+ progenitor/stem cells” value ([1]; 6 hour time point) was 6 fold and the WBC count [1] was 17,000 μl.

Source: patent US10322111B2, “Chemokine receptor binding heterocyclic compounds with enhanced efficacy” (Genzyme Corporation, priority 2001, dated 2019)
